Read-outs that look alike come from different tables or passages of the source.
Experiments:
C3H10T1/2 cells = assay: Differentiation of C3H10T1/2 cells induced by SAG, alkaline phosphatase (AP) activity; assay type: cell-based, mouse; conditions: Mus musculus, C3H 10T1/2
Experimental: The test compounds of formula (I) were dissolved in dimethylsulfoxide up to a concentration of 10 mM, then stored at a temperature of −20° C. until used.
The line of C3H10T1/2 pluripotent fibroblast cells (ATCC) was cultured in the conditions recommended by the ATCC. These cells were activated using 0.1 μM of SAG according to the methods described by Chen et al., Proc. Natl. Acad. Sci. USA, 2002, 99, 14071 and Frank-Kamenetsky et al., J. Biol., 2002, 1, 10.
Activation by SAG causes differentiation of the cell line and allows it to express alkaline phosphatase (AP). It was thus possible to measure the activity of the Hedgehog protein signalling pathway via measurement of the alkaline phosphatase (AP) activity.
The C3H10T1/2 cells were seeded on 96-well plates at a density of 5.10^3 cells per well, 24 hours before adding the test compounds at a concentration varying from 1 nM to 30 μM and in the presence of 0.1 μM of SAG, using DMEM (Dulbecco's Modified Eagle's Medium) with 10% fetal calf serum as culture medium. The tests were carried out in quadruplicate. The plates were then incubated for 5 to 6 days at a temperature of 37° C. under 5% CO2 atmosphere. The cells were then washed in cold phosphate buffer (“Phosphate Buffer Serum”: PBS), then lysed by sonication at 4° C. in 50 μL of a solution containing 0.9% of NaCl and 0.2% of Triton X-100.
Measurement of the alkaline phosphatase (AP) activity in the lysates thus obtained was then performed according to the method described by Pepinsky et al. (J. Biol. Chem., 1998, 273, 14037). After adding 100 μL of reaction buffer (200 mM Tris-HCl; pH 10.5; 0.4 M of 2-amino-2-methylpropanol and 8 mM of MgCl2) and 50 μL of substrate (4 mM of p-nitrophenyl disodium phosphate), the lysates were incubated at 37° C. for 30-60 min, then the optical density was read at a wavelength of 415 nm.

[1] = target: T1, human Smoothened receptor (Homo sapiens, UniProt Q99835); assay: Inhibition of binding of 3H-(7d) to membranes of HEK-hSmo cells; conditions: HEK-hSmo membranes
T1 construct: expressed in transfected cells
T1 sequence (Q99835 28-787): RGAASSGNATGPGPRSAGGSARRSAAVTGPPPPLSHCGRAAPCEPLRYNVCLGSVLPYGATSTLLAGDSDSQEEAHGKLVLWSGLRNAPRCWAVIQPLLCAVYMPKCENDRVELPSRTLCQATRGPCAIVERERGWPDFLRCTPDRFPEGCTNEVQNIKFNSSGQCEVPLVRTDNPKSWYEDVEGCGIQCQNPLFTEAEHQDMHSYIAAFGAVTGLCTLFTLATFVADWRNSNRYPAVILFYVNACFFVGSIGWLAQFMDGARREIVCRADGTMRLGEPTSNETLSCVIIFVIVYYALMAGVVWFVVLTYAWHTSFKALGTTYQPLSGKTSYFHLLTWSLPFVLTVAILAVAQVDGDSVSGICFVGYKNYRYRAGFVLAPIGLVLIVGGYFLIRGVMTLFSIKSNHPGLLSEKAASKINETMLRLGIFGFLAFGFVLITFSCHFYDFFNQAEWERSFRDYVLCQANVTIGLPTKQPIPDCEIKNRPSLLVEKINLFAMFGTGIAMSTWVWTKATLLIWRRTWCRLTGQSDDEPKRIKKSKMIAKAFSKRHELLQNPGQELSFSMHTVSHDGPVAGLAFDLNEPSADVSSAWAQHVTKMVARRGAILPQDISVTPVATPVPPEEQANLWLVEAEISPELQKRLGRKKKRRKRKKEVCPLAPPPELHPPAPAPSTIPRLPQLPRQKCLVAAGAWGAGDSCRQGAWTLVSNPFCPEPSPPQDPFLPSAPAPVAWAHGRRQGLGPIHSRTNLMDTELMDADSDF
Experimental: The binding test is carried out on membranes enriched with Smoothened receptor. Cells of the HEK-hSmo line were used for preparing these membranes. The cells are washed and recovered in iced PBS. After centrifugation at 100 g for 7 minutes at 4° C., the pellet is taken up in 10 times its volume of an iced buffer A (50 mM HEPES, pH 7.4, 1 mM EDTA) with addition of 10 μl of a cocktail of protease inhibitors (PEAK, Sigma) per ml of buffer, then it is homogenized using a Polytron grinding mill. After centrifugation at 500 g for 30 minutes at 4° C., which makes it possible to remove the nuclei from the cells, the supernatant is centrifuged again at 48 000 g for 45 min at 4° C. The pellet is taken up in 2 ml of buffer A with PEAK added, then the suspension is homogenized using a glass conical grinding mill and is passed through a 23 G needle. Finally, aliquots are placed in Eppendorf tubes and stored at −80° C. The concentration of total protein in the preparation is determined by Lowry's method using BSA for preparing the standard range.
The membranes are resuspended in a buffer (50 mM HEPES and 3 mM MgCl2) containing 0.2% of BSA. The tests of binding of ^3H-(7d) are carried out in polypropylene tubes. The membranes (2 μg of proteins) are incubated with the ^3H-(7d) in the presence or absence of the cold test compounds for 3 hours at 37° C. in a final volume of 400 μl. Incubation is stopped by immersing the tubes in iced water followed by rapid filtration (Brandel) through a glass fiber filtration membrane (GF/C) treated beforehand with 0.3% of polyethylenimine, which can reduce the nonspecific binding of the ^3H-(7d) to the filtration membrane. The radioactivity retained on the filter is measured in the presence of 3 ml of scintillating agent in a liquid scintillation counter.
In this experiment, the cold ligand competes with the radioactive ligand for binding to the receptor, and the affinity (Ki) of each cold ligand for the receptor can be analyzed based on the IC50 values deduced from the inhibition curves.

- IC50 (C3H10T1/2 cells; AP activity, differentiation induced by SAG (0.1 μM), read-out: IC50 ± SEM, C3H10T1/2 cells (2)): 6 ± 1 nM
- IC50 (C3H10T1/2 cells; SAG 0.1 μM, Mean ± SEM, n ≧ 3, read-out: IC50, differentiation of C3H10T1/2 cells): 6 ± 1 nM
- IC50 (C3H10T1/2 cells; after induction by SAG at 0.1 μM, read-out: IC50, inhibition of alkaline phosphatase (AP) activity, differentiation of C3H10T1/2 cells): 6 ± 1 nM
- IC50 ([1]; 0.35 nM 3H-(7d), 3 hours at 37° C., read-out: IC50 ± SEM, binding of compound 3H-(7d)): 1.5 nM
- Ki ([1]; calculated from IC50, read-out: Ki ± SEM, binding of compound 3H-(7d)): 0.7 ± 0.1 nM
Compound: COc1cc(C(=O)NC(=N)Nc2ccc(C)c(NC(=O)c3ccc(CCc4ccccc4)cc3)c2)cc(OC)c1OC.Cl [Compound 7d, 3,4,5-trimethoxy-N—(N-(4-methyl-3-(4-phenethylbenzamido)phenyl)carbamimidoyl)benzamide hydrochloride]
